We go through seven molecules from patent US20200323991A1, “PBD CONJUGATES FOR TREATING DISEASES” (ENDOCYTE, INC., priority 2016, published 2020).

One series deals with KB tumor. Description: Antitumor activity in large KB tumor model. It counts as in vivo, mice. As to conditions: once a week for two weeks. Here is the method:
Female Balb/c nu/nu mice were fed ad libitum with folate-deficient chow (Harlan diet #TD01013) for the duration of the experiment. KB tumor cells were inoculated subcutaneously at the right flank of each mouse. Mice were dosed after the tumors reached an average of 100 and 180 mm^3 through the lateral tail vein under sterile conditions in a volume of […] of phosphate-buffered saline (PBS).
Growth of each s.c. tumor was followed by measuring the tumor two times per week. Tumors were measured in two perpendicular directions using Vernier calipers, and their volumes were calculated as 0.5×L×W^2, where L=measurement of longest axis in mm and W=measurement of axis perpendicular to L in mm.

A further series deals with T1, folate receptor (Homo sapiens, UniProt P15328).
T1 construct: endogenous in cells; host or cells: KB cells
T1 sequence (P15328 25-234): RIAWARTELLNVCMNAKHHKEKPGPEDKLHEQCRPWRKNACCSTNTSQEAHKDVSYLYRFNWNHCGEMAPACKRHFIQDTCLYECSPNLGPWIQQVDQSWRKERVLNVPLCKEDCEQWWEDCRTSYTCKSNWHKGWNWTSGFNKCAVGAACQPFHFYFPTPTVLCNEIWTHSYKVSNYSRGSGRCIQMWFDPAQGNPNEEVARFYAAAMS
Description: Relative affinity assay (displacement of [3H]FA bound to FR on KB cells). It counts as binding. The following applies: 100 nmol/L [3H]FA, 1 h at 37° C. Here is the method: FR-positive KB cells were seeded in 24-well Falcon plates and allowed to form adherent monolayers (>90% confluent) overnight in FFRPMI/HIFCS. Spent incubation medium was replaced with FFRPMI supplemented with 10% HIFCS and containing 100 nmol/L of [^3H]FA in the absence and presence of increasing concentrations of unlabeled FA or the test conjugate. Cells were incubated for 1 h at 37° C. and then rinsed thrice with 0.5 mL PBS. Five hundred microliters of 1% SDS in PBS were added to each well; after 5 min, cell lysates were collected, transferred to individual vials containing 5 mL of scintillation cocktail, and then counted for radioactivity.
Cells exposed to only the [3H]FA in FFRPMI (no competitor) were designated as negative controls, whereas cells exposed to the [3H]FA plus 1 mmol/L unlabeled FA served as positive controls. Disintegrations per minute (DPM) measured in the latter samples (representing nonspecific binding of label) were subtracted from the DPM values from all samples.

The subject of another series is MDA-MB231 cells. Briefly: 3H-thymidine incorporation in MDA-MB231 cells. It counts as cell-based, human. As to conditions: MDA-MB-231 cells, 100 μM folic acid. Here is the method:
MDA-MB231 (human breast cancer) cells were seeded in 12-well Falcon plates and allowed to form nearly confluent monolayers overnight in FFRPMI/HIFCS. Designated wells received medium containing 100μM folic acid (nontoxic FR blocker) and were used to determine the targeting specificity. Each well then received increasing concentrations of Conjugate 1 (n=4). Cells were pulsed for 2 h at 37° C., rinsed with medium, and then chased in fresh medium up to 72 h. Spent medium was aspirated and replaced with medium containing [3H]thymidine. Following a 2 h incubation, cells were washed with PBS and then treated with 5% trichloroacetic acid. The trichloroacetic acid was aspirated and cells were solubilized in 0.25 N sodium hydroxide. Each solubilized sample were transferred to scintillation vials containing Ecolume scintillation cocktail and counted in a liquid scintillation counter. Final results were expressed as the percentage of [3H]thymidine incorporation relative to untreated controls and IC50 were values calculated using GraphPad Prism software.

The test system of another series is Calf thymus DNA (CT-DNA). Description: DNA crosslinking assay (ethidium bromide fluorescence). It counts as biochemical. Here is the method:
(§1) Calf thymus DNA (CT-DNA) was combined with increasing concentrations of Conjugate 1 (0.14 to 33.3 pM) or Conjugate 1+/− DTT. CT-DNA+Melphalan was used as a positive control and CT-DNA+DMSO was used as a negative control. These solutions were incubated at 37° C. for 2 hours. The solutions were then mixed with ethidium bromide and incubated for 2 hours at room temperature. Fluorescence (Ex: 535 nm, Em: 605 nm) from these samples was measured on the Fluoroskan II fluorimeter. Next, the samples were heated to 104° C. for 5 minutes, cooled on ice for 5 minutes, kept at RT for 15 minutes and fluorescence measured. % crosslinking of each sample was calculated using the fluorescence values from the positive and negative controls.
as §1, with “5 (1.1” for “1 (0.14”, “75” for “33.3”, “5+/−” for “1+/−”, “DTT.” for “DTT. CT-DNA+Melphalan was used as a positive control and CT-DNA+DMSO was used as a negative control.”

The nature of series [1]: Toxicity in KB tumor bearing mice. The following applies: 0.5 μmol/kg, once a week for two weeks. It counts as in vivo. Here is the method:
The percentage weight change of the test animals was determined on selected days post-tumor inoculation (PTI), and during dosing. The results were graphed.

The next series concerns KB cells. It counts as cell-based, human. The following applies: read-out: IC50 value, 3H-thymidine incorporation. Here is the method: The conjugates described herein were evaluated using an in vitro cytotoxicity assay that predicted the ability of the drug to inhibit the growth of the corresponding targeted cells, such as, but not limited to the following
It is to be understood that the choice of cell type can be made on the basis of the susceptibility of those selected cells to the drug that forms the conjugate, and the relative expression of the cell surface receptor or target antigen. The test conjugates were conjugates of a cell surface receptor or target antigen binding compound and PBD prodrugs, poly-PBD prodrugs, and mixed PBDs, as described herein. The test cells were exposed to varying concentrations of the conjugates, and optionally also in the absence or presence of at least a 100-fold excess of the unconjugated cell surface receptor or target antigen binding compound for competition studies to assess activity as being specific to the cell surface receptor or target antigen.
KB cells were seeded in individual 24-well Falcon plates and allowed to form nearly confluent monolayers overnight in folate free Roswell Park Memorial Institute (FFRPMI)/Heat-Inactivated Fetal Calf Serum (HIFCS). Thirty minutes prior to the addition of folate-conjugate, spent medium was aspirated from all wells and replaced with either fresh FFRPMI or FFRPMI supplemented with 100 μM folic acid. […] Cells were pulsed for 2 h at 37° C., rinsed 4 times with 0.5 mL of medium and then chased in 1 mL of fresh medium up to 72 h. Spent medium was aspirated from all wells and replaced with fresh medium containing 5 μCi/mL of ^3H-thymidine. Following a 2 h incubation at 37° C., cells were washed 3 times with 0.5 mL of PBS and then treated with 0.5 mL of ice-cold 5% trichloroacetic acid per well. After 15 min, the trichloroacetic acid was aspirated and the cells solubilized by the addition of 0.5 mL of 0.25 N sodium hydroxide for 15 min at room temperature. Four hundred and fifty […] of each solubilized sample were transferred to scintillation vials containing 3 mL of Ecolume scintillation cocktail and counted in a liquid scintillation counter. Final results were expressed as the percentage of ^3H-thymidine incorporation relative to untreated controls.

Another series relates to TNBC PDX tumor. Briefly: In vivo activity against triple negative breast tumors (FIG. 38). The arrangement: species or system mice. As to conditions: 1.0 μmol/kg SIW for two weeks. Here is the method: (§2) Mice were maintained and tumor volumes were measures according to Method 3.
Primary human TNBC model ST502 (2-4 mm in diameter) or primary human TNBC model ST738 (2-4 mm in diameter) were inoculated subcutaneously at the right flank of each mouse. Mice were randomized into experimental groups of 7 mice each and test articles were injected through the lateral tail vein under sterile conditions in a volume of 200 μL of phosphate-buffered saline (PBS).

Series [2] concerns Endometrial PDX tumor (ST040). Description: In vivo activity against endometrial tumors, ST040. Further details: species or system mice. As to conditions: 15 mg/kg SIW for two weeks. Here is the method:
Female Balb/c nu/nu mice were fed ad libitum with folate-deficient chow (Harlan diet #TD01013) for the duration of the experiment. Primary human Endometrial model ST040 fragments (2-4 mm in diameter) were inoculated subcutaneously at the right flank of each mouse. Mice were randomized into experimental groups of 7 mice each and test articles were injected through the lateral tail vein under sterile conditions in a volume of 200 μL of phosphate-buffered saline (PBS). These studies were performed at South Texas Accelerated Research Therapeutics, 4383 Medical Drive, San Antonio, Tex. 78229.
Growth of each s.c. tumor was followed by measuring the tumor two times per week until a volume of 1200 mm^3 was reached. Tumors were measured in two perpendicular directions using Vernier calipers, and their volumes were calculated as 0.5×L×W^2, where L=measurement of longest axis in mm and W=measurement of axis perpendicular to L in mm.

A further series has as its system ST070 ovarian PDX tumors. Briefly: In vivo activity against ovarian tumors, ST070. The arrangement: species or system mice. The following applies: 15.0 mg/kg SIW for two weeks. As to the method:
as §2
Primary human Ovarian model ST070 fragments (2-4 mm in diameter) were inoculated subcutaneously at the right flank of each mouse. Mice were randomized into experimental groups of 7 mice each and test articles were injected through the lateral tail vein under sterile conditions in a volume of 200 μL of phosphate-buffered saline (PBS).

Setting [3] is: with excess folate (100 μM folic acid).
Setting [4] is: without excess folate, 2 h pulse, chase up to 72 h.

Where two headings read alike, the source gives them in different places.

`C=C1C[C@H]2C=Nc3cc(OCCCCCOc4cc5c(cc4OC)C(=O)N4CC(=C)C[C@H]4[C@H](O)N5C(=O)OCC(C)SSC[C@H](NC(=O)[C@H](CC(=O)O)NC(=O)[C@H](CC(=O)O)NC(=O)[C@H](CCCNC(=N)N)NC(=O)[C@H](CC(=O)O)NC(=O)CC[C@H](NC(=O)c4ccc(NCc5cnc6nc(N)[nH]c(=O)c6n5)cc4)C(=O)O)C(=O)O)c(OC)cc3C(=O)N2C1` (stereo partly drawn) [Conjugate 1] gave a cures in the series on KB tumor (0.5 μmol/kg) of 100%. Moreover, the “relative binding affinity toward the folate receptor, fold lower than that of folic acid” value at folate receptor was roughly 4.2 fold. In the series on MDA-MB231 cells, the “cytotoxic activity in the presence of an excess of free folate” value is on record as “significant reduction in activity”. Further, the “DNA crosslinking by reduced form” value with Calf thymus DNA (CT-DNA) (treated with DTT) was “crosslink with DNA”. For the same molecule, the “DNA crosslinking by intact conjugate” value in the series on Calf thymus DNA (CT-DNA) (without DTT) was “not able to crosslink DNA”.
In turn, `C=C1C[C@H]2C=Nc3cc(OCCCCCOc4cc5c(cc4OC)C(=O)N4CC(=C)C[C@H]4[C@H](O)N5C(=O)OCCSSC[C@H](NC(=O)[C@H](CC(=O)O)NC(=O)[C@H](CC(=O)O)NC(=O)[C@H](CCCNC(=N)N)NC(=O)[C@H](CC(=O)O)NC(=O)CC[C@H](NC(=O)c4ccc(NCc5cnc6nc(N)[nH]c(=O)c6n5)cc4)C(=O)O)C(=O)O)c(OC)cc3C(=O)N2C1` [Conjugate 3] displayed a complete responses with KB tumor (0.5 μmol/kg) of 100%. For the same molecule, the “day on which mice had to be euthanized due to toxicity” value in series [1] amounted to 48 days. The IC50 worked out at 3 nM in the series with KB cells (setting [3]) and 0.039 nM in the series on KB cells (setting [4]).
As to erubulin mesylate, the “TNBC PDX tumor size compared to untreated control” value with TNBC PDX tumor was “did not decrease TNBC PDX tumor size”.
In the series with KB tumor (0.5 μmol/kg), `C=C1C[C@H]2C=Nc3cc(OCCCCCOc4cc(NC(=O)OCCSSC[C@H](NC(=O)[C@H](CC(=O)O)NC(=O)[C@H](CC(=O)O)NC(=O)[C@H](CCCNC(=N)N)NC(=O)[C@H](CC(=O)O)NC(=O)CC[C@H](NC(=O)c5ccc(NCc6cnc7nc(N)[nH]c(=O)c7n6)cc5)C(=O)O)C(=O)O)c(C(=O)N5CC(=C)C[C@H]5/C=N/OC)cc4OC)c(OC)cc3C(=O)N2C1` [Conjugate 16] displayed a complete responses of 40% and a cures of 60%. Besides, in the series on KB cells (setting [3]), the IC50 turned out to be 5 nM. Moreover, in the series on KB cells (setting [4]), the IC50 was determined as 0.07 nM.
`C=C1C[C@H]2C=Nc3cc(OCCCCCOc4cc(N)c(C(=O)N5CC(=C)C[C@H]5C5CCCN5C(=O)OC[C@@H](SSC[C@H](NC(=O)[C@H](CC(=O)O)NC(=O)[C@H](CC(=O)O)NC(=O)[C@H](CCCNC(=N)N)NC(=O)[C@H](CC(=O)O)NC(=O)CC[C@H](NC(=O)c5ccc(NCc6cnc7nc(N)[nH]c(=O)c7n6)cc5)C(=O)O)C(=O)O)C(C)C)cc4OC)c(OC)cc3C(=O)N2C1` (stereo partly drawn) [Conjugate 12]: in the series with KB tumor (0.5 μmol/kg), the “PRs (partial responses)” value turned out to be 100%. Also, the “day on which mice had to be euthanized due to toxicity” value in series [1] turned out to be 40 days.
In the case of `CC(=O)O[C@H]1C(=O)[C@@]2(C)[C@H]([C@H](OC(=O)c3ccccc3)[C@]3(O)C[C@H](OC(=O)[C@H](O)[C@@H](NC(=O)c4ccccc4)c4ccccc4)C(C)=C1C3(C)C)[C@]1(OC(C)=O)CO[C@@H]1C[C@@H]2O` [paclitaxel], the partial response subjects in [2] was found to be 0%. Besides, in the series on ST070 ovarian PDX tumors, the “tumor size compared to untreated control” value is “did not have decreased tumor size”.
As for `C=C1C[C@H]2C=Nc3cc(OCCCCCOc4cc5c(cc4OC)C(=O)N4CC(=C)C[C@H]4C(=O)N5COC(=O)CCCSSC[C@@H](NC(=O)[C@H](CCC(=O)NC[C@H](O)[C@@H](O)[C@H](O)[C@H](O)CO)NC(=O)[C@@H](CCC(=O)O)NC(=O)[C@H](CCC(=O)NC[C@H](O)[C@@H](O)[C@H](O)[C@H](O)CO)NC(=O)[C@@H](CCC(=O)O)NC(=O)[C@H](CCC(=O)NC[C@H](O)[C@@H](O)[C@H](O)[C@H](O)CO)NC(=O)CC[C@H](NC(=O)c4ccc(NCc5cnc6nc(N)[nH]c(=O)c6n5)cc4)C(=O)O)C(=O)O)c(OC)cc3C(=O)N2C1` [Conjugate 9], in the series with KB tumor (1 μmol/kg), the “PRs (partial responses)” value is given as 0%. For the same molecule, the IC50 in the series on KB cells (setting [3]) turned out to be 67 nM; with KB cells (setting [4]), 0.8 nM.
